What was measured:
Assay in all cases: area under growth-rate inhibition curve (AUC GRI) (dimensionless (GR-based AUC)); higher = less growth inhibition
Details in all cases: exposure time: 72 h; concentrations: 0.1, 1, 10 uM
BT474-LTR = tested on: BT474-LTR
Outline: (§1)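 The area under the growth-rate inhibition curve was measured in six breast cancer cell line models, covering triple-negative lines and HER2+ lines, both parental and resistant to a two-drug combination. Cells were exposed to compound at 0.1, 1 or 10 µM for 72 h, fixed in 4% paraformaldehyde, and nuclei were stained with Hoechst 33342 or DAPI for imaging and counting. Day 0 plates, untreated Day 3 plates and DMSO controls served to correct growth across 2 biological replicates.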

BT474-P = tested on: BT474-P
Outline: as §1

MDA-MB-231 = tested on: MDA-MB-231
Outline: as §1

MDA-MB-468 = tested on: MDA-MB-468
Outline: as §1

SKBR3-LTR = tested on: SKBR3-LTR
Outline: as §1

SKBR3-P = tested on: SKBR3-P
Outline: as §1

SMILES | area under growth-rate inhibition curve (BT474-LTR) | area under growth-rate inhibition curve (BT474-P) | area under growth-rate inhibition curve (MDA-MB-231) | area under growth-rate inhibition curve (MDA-MB-468) | area under growth-rate inhibition curve (SKBR3-LTR) | area under growth-rate inhibition curve (SKBR3-P)
C[NH+]1CCC[C@@H]1CCO[C@](C)(c1ccccc1)c1ccc(Cl)cc1.O=C([O-])/C=C/C(=O)O [Clemastine Fumarate] | 1.02 | 0.941 | 1.02 | 0.932 | 0.958 | 0.898
CCN(CC)CCOC(=O)c1ccc(N)cc1.[Cl-].[H+] [procaine] | 1.05 | 1.02 | 1.03 | 1.03 | 1.07 | 1.01
Fc1ccc([C@@H]2CCNC[C@H]2COc2ccc3c(c2)OCO3)cc1.[Cl-].[H+] [Paroxetine HCl] | 0.927 | 0.931 | 0.965 | 0.912 | 0.927 | 0.955
CN1C2CCC1CC(OC(=O)C(CO)c1ccccc1)C2 (configuration not stated) [Hyoscyamine] | 1.13 | 1.06 | 1.03 | 1.04 | 1.04 | 1.04
CC(=O)NCCCS(=O)(=O)[O-].CC(=O)NCCCS(=O)(=O)[O-].[Ca+2] [Acamprosate calcium] | 1.01 | 1.01 | 0.995 | 1 | 1.03 | 1.01
COc1cc2c(cc1OC)C1Cc3ccc(OC)c(OC)c3CN1CC2 (configuration not stated) [Rotundine] | 1.11 | 1.03 | 0.997 | 1.02 | 1.04 | 0.992
CNCCC(Oc1ccc(C(F)(F)F)cc1)c1ccccc1.[Cl-].[H+] (configuration not stated) [Fluoxetine HCl] | 1.03 | 1.02 | 1 | 1.03 | 1 | 1.02
CC12CCC(=O)C=C1C1CC1C1C2CCC2(C)C1C1CC1C21CCC(=O)O1 (configuration not stated) [Drospirenone] | 1.09 | 1.04 | 1.01 | 1.05 | 1.05 | 1.03
CC1(C)O[C@@H]2[C@@H](CO[C@@]3(COS(N)(=O)=O)OC(C)(C)O[C@@H]23)O1 [Topiramate] | 1.05 | 1.02 | 1.03 | 1.05 | 1.04 | 1.02
CS(=O)(=O)[O-].C[NH+]1[C@@H]2CC[C@H]1C[C@@H](OC(c1ccccc1)c1ccccc1)C2 [Benztropine mesylate] | 1.08 | 1.03 | 1.03 | 0.994 | 1.01 | 0.986
COc1ccccc1Oc1c(NS(=O)(=O)c2ccc(C(C)(C)C)cc2)nc(-c2ncccn2)nc1OCCO.O [Bosentan Hydrate] | 1.09 | 1.04 | 1.04 | 1.01 | 1.06 | 1.01
C[C@H](Cc1cc2c(c(C(N)=O)c1)N(CCCO)CC2)NCCOc1ccccc1OCC(F)(F)F [Silodosin] | 1.1 | 1.06 | 1.04 | 1.05 | 1.1 | 1.03
CN1CCC(=C2c3ccccc3C=Cc3ccccc32)CC1.[Cl-].[H+] [Cyproheptadine HCl] | 1.03 | 1.03 | 1.02 | 1 | 1.09 | 1
O=C(O)c1cccnc1Nc1cccc(C(F)(F)F)c1 [Niflumic acid] | 1.07 | 1.01 | 1.03 | 1.03 | 1.04 | 1.01
Cc1ccc(-n2nccn2)c(C(=O)N2CCN(c3nc4cc(Cl)ccc4o3)CCC2C)c1 (configuration not stated) [Suvorexant (MK-4305)] | 1.05 | 1.02 | 1.02 | 0.955 | 1.04 | 0.995
CN(C)CC/C=C1\c2ccccc2COc2ccc(CC(=O)O)cc21.Cl [Olopatadine HCl] | 1.1 | 1.04 | 1.04 | 0.999 | 1.02 | 1.02
CC(C)(C)NCC(O)COc1cccc2c1CCC(=O)N2.[Cl-].[H+] (configuration not stated) [Carteolol HCl] | 1.11 | 1.05 | 1.04 | 1.03 | 1.1 | 1.04
CCOc1cc(N)c(Cl)cc1C(=O)NCC1CN(Cc2ccc(F)cc2)CCO1.O=C(O)CC(O)(CC(=O)O)C(=O)O (configuration not stated) [Mosapride Citrate] | 1.09 | 1.04 | 1.03 | 1.02 | 1.02 | 1.01
O=c1[nH]c2ccccc2n1C1CCN(CCCC(c2ccc(F)cc2)c2ccc(F)cc2)CC1 [Pimozide] | 0.991 | 0.974 | 0.991 | 0.959 | 1.01 | 0.972
S=C=Nc1cccc(NC(=S)NCCCCNC(=S)Nc2cccc(N=C=S)c2)c1 [MRS 2578] | 1.08 | 1.02 | 1.02 | 1.03 | 1.07 | 1.02
CCC/N=C1\S/C(=C\c2ccc(OC[C@H](O)CO)c(Cl)c2)C(=O)N1c1ccccc1C [Ponesimod] | 1.04 | 0.996 | 1.01 | 1.04 | 1.02 | 0.989
Br.CN1C2CC(OC(=O)C(CO)c3ccccc3)CC1C1OC12 (configuration not stated) [Scopolamine HBr] | 1.08 | 1.05 | 1.03 | 1.04 | 1.09 | 1.01
Cl.Clc1ccc2nsnc2c1NC1=NCCN1 [Tizanidine HCl] | 1.07 | 1.02 | 1.02 | 1.02 | 1.01 | 1
O=C1Cc2cc(CCN3CCN(c4nsc5ccccc45)CC3)c(Cl)cc2N1.[Cl-].[H+] [Ziprasidone hydrochloride] | 1.06 | 0.993 | 1.03 | 1.03 | 1.05 | 1
CN(C)CC/C=C1/c2ccccc2Sc2ccc(Cl)cc21 [Chlorprothixene] | 1.01 | 0.997 | 1.02 | 0.931 | 1.03 | 0.97
CCCC(=O)Nc1ccc(OCC(O)CNC(C)C)c(C(C)=O)c1.[Cl-].[H+] (configuration not stated) [Acebutolol HCl] | 1.11 | 1.05 | 1.03 | 1.03 | 1.07 | 1.04

SMILES | area under growth-rate inhibition curve (BT474-LTR) | area under growth-rate inhibition curve (BT474-P) | area under growth-rate inhibition curve (MDA-MB-231) | area under growth-rate inhibition curve (MDA-MB-468) | area under growth-rate inhibition curve (SKBR3-LTR) | area under growth-rate inhibition curve (SKBR3-P)
CC(C)COc1ccc(CNC(=O)N(Cc2ccc(F)cc2)C2CCN(C)CC2)cc1 [Pimavanserin] | 0.936 | 0.873 | 0.867 | 0.887 | 0.876 | 0.856
Oc1c(Cl)cc(Cl)cc1Sc1cc(Cl)cc(Cl)c1O [Bithionol] | 1.06 | 0.999 | 1.03 | 0.985 | 1.02 | 1.01
CN1C2CC(O)CC1C1OC12 (configuration not stated) [Scopine] | 1.08 | 1.05 | 1.07 | 1.05 | 1.05 | 1.03
CCCCN1CCCCC1C(=O)[NH2+]c1c(C)cccc1C.[Cl-] (configuration not stated) [Bupivacaine HCl] | 1.12 | 1.1 | 1.04 | 1.07 | 1.1 | 1.06
CCC(c1cccc(O)c1)C(C)CN(C)C (configuration not stated) [Tapentadol] | 1.01 | 1.01 | 0.986 | 1 | 1 | 1.01
CC(C)(Cc1ccc2ccccc2c1)NC[C@@H](O)COc1cccc(Cl)c1C#N [NPS-2143] | 0.815 | 0.808 | 0.874 | 0.817 | 0.794 | 0.833
CC12CC3CC(C)(C1)CC(N)(C3)C2.Cl [Memantine HCl] | 0.981 | 1 | 0.997 | 0.982 | 0.989 | 1.03
CC12CCC3=C4CCC(=O)C=C4CCC3C1CCC2(O)CC#N (configuration not stated) [Dienogest] | 1.12 | 1.05 | 1.03 | 1.03 | 1.04 | 1.01
NCCCC[C@H](N[C@@H](CCc1ccccc1)C(=O)O)C(=O)N1CCC[C@H]1C(=O)O.O.O [Lisinopril] | 1.1 | 1.06 | 1.01 | 1 | 1.08 | 1.02
CC(C)NCC(O)COc1ccc(CCOCC2CC2)cc1.[Cl-].[H+] (configuration not stated) [Betaxolol] | 1.07 | 1.01 | 1.05 | 1.01 | 1.07 | 0.996
O=C(CCCN1CC=C(n2c(=O)[nH]c3ccccc32)CC1)c1ccc(F)cc1 [Droperidol] | 1.04 | 1.03 | 1.02 | 0.992 | 1.07 | 1.02
COc1ccc(CN(C(=O)C(N)Cc2c(C)cc(C(N)=O)cc2C)C(C)c2ncc(-c3ccccc3)[nH]2)cc1C(=O)O (configuration not stated) [Eluxadoline] | 1.04 | 1 | 1.04 | 1.04 | 1.04 | 1.02
COc1cc(NC(=O)c2ccccn2)ccc1Cl | 1.07 | 1.01 | 1.05 | 1.01 | 1.05 | 0.979
Cc1ccc(O)c([C@H](CCN(C(C)C)C(C)C)c2ccccc2)c1.O=C(O)[C@H](O)[C@@H](O)C(=O)O [Tolterodine tartrate] | 1.12 | 1.04 | 1.03 | 1.04 | 1.06 | 0.972
CN(C)CCC=C1c2ccccc2CCc2ccccc21.Cl [Amitriptyline HCl] | 1.08 | 1.03 | 1.03 | 0.997 | 1.09 | 0.983
CCCN(CCC)CCc1cccc2c1CC(=O)N2 [Ropinirole] | 1.05 | 0.994 | 1.03 | 1.06 | 1.05 | 1.02
NC(N)=NCCCC(N)C(=O)NC(CCCN=C(N)N)C(=O)N1CCCC1C(=O)N1CC(O)CC1C(=O)NCC(=O)NC(Cc1cccs1)C(=O)NC(CO)C(=O)N1Cc2ccccc2CC1C(=O)N1C(C(=O)NC(CCCN=C(N)N)C(=O)O)CC2CCCCC21 (configuration not stated) [HOE 140] | 1.06 | 1.03 | 1.01 | 1.02 | 1.04 | 1.04
CCCCCCCCOc1ccccc1C(=O)Nc1ccc(C(=O)OCC[N+](C)(CC)CC)cc1.[Br-] [Otilonium Bromide] | 1.07 | 0.939 | 1.04 | 0.947 | 1.01 | 1
Cc1nc2n(c(=O)c1CCN1CCC(c3noc4cc(F)ccc34)CC1)CCCC2O (configuration not stated) [Paliperidone] | 1.02 | 0.98 | 1.05 | 1.05 | 1.06 | 1.02
CC(CCc1ccc(O)cc1)NCCc1ccc(O)c(O)c1.[Cl-].[H+] (configuration not stated) [Dobutamine hydrochloride] | 1.01 | 0.992 | 1.02 | 1.04 | 1.07 | 1.03
Cc1cncc(CN2CCC(=C3c4ccc(Cl)cc4CCc4cccnc43)CC2)c1.O=C(O)/C=C/C(=O)O [Rupatadine Fumarate] | 1.05 | 0.974 | 1.05 | 0.972 | 1.03 | 0.966
OCCN1CCN(CCCN2c3ccccc3Sc3ccc(Cl)cc32)CC1 [Perphenazine] | 1.03 | 0.983 | 1.04 | 1.03 | 1.04 | 1.01
CCC(=O)O[C@@]1(C(=O)SCF)[C@H](C)CC2C3CC(F)C4=CC(=O)C=C[C@]4(C)[C@]3(F)C(O)C[C@@]21C (some centres not stated) [Fluticasone propionate] | 1.04 | 0.985 | 0.973 | 1.04 | 1.05 | 0.915
C[N+]1(C)C2CC(OC(=O)C(CO)c3ccccc3)CC1C1OC12.[Br-] (configuration not stated) [Methscopolamine] | 1.1 | 1.05 | 1.03 | 1.04 | 1.04 | 1.02
CCOC(=O)c1ncn2c1CN(C)C(=O)c1cc(F)ccc1-2 [Flumazenil] | 1.06 | 1.03 | 1.01 | 1.02 | 1.03 | 0.989
CS(=O)(=O)O.Cc1ccc(N(CC2=NCCN2)c2cccc(O)c2)cc1 [Phentolamine Mesylate] | 1.05 | 0.997 | 1.01 | 0.964 | 1.04 | 0.983

Source: the supplement of paper PMC9763283
